In ChEMBL document CHEMBL1133794, “3-p-Toluoyl-2-[4'-(3-diethylaminopropoxy)-phenyl]-benzofuran and 2-[4'-(3-diethylaminopropoxy)-phenyl]-benzofuran do not act as surfactants or micelles when inhibiting the aggregation of beta-amyloid peptide” (Bioorg Med Chem Lett, 2001):

What was measured:
[1] = Inhibitory concentration required to inhibit aggregation of 50 uM beta-amyloid 1-40 peptide by 50% over 24 hr r incubation, 37 degree C; format: functional
[2] = Critical micelle concentration determined by micellar/surfactant based mechanism; format: functional

IC50 [1]	Structure (SMILES)	Critical micelle concentration [2]
78 µM	CCN(CC)CCCOc1ccc(-c2cc3ccccc3o2)cc1	220 µM
20 µM	CCN(CC)CCCOc1ccc(-c2oc3ccccc3c2C(=O)c2ccc(C)cc2)cc1	225 µM
